{"source": "paper PMC11219871", "about": "“Epigenetic-based differentiation therapy for Acute Myeloid Leukemia” (Nature Communications, 2024)", "key": {"GF-D8": {"system": "GF-D8", "assay": "Cell proliferation assay: GI50", "format": "cell-based", "settings": "GF-D8, replicates 1-3", "protocol": "(§1) Cell proliferation was analyzed using the CellTiter 96 Aqueous One Solution Cell Proliferation Assay (Promega, Madison, WI). This is a colorimetric method for determining the number of viable cells in proliferation. For the assay, suspension cells were cultured in triplicate at a density of 1 × 10^6 cells/mL in 96-well plates (100.000 cells/well, 100 µL/well), using only the 60 inner wells to avoid any border effects. After 48 h of treatment with different doses of each compound (0, 0.001, 0.01, 0.1, 0.2, 0.4, 0.6, 0.8, 1, 2, 3, 4, 5 and 10 µM), the plates were centrifuged at 800 g for 10 min followed by removal of the medium. Then, the cells were incubated with 100 μL/well of medium and 20 μL/well of CellTiter 96 Aqueous One Solution reagent for 1–3 h. The absorbance was recorded at 490 and 650 nm as reference wavelengths using 96-well plate readers until the absorbance of the control cells without treatment was approximately 0.8 AU. The background absorbance was measured in wells with only cell line medium and solution reagent. First, the average of the absorbance from the control wells was subtracted from all other absorbance values. Data were calculated as the percentage of total absorbance of treated cells/absorbance of non-treated cells. The GI50 values of the different compounds were determined using non-linear regression plots made with GraphPad Prism v5 software."}, "HEL": {"system": "HEL", "assay": "Cell proliferation assay: GI50", "format": "cell-based", "settings": "replicates 1-3", "protocol": "as §1"}, "KASUMI-1": {"system": "KASUMI-1", "assay": "Cell proliferation assay: GI50", "format": "cell-based", "protocol": "as §1"}, "M-07e": {"system": "M-07e", "assay": "Cell proliferation assay: GI50", "format": "cell-based", "settings": "replicates 1-3", "protocol": "as §1"}, "MONO-MAC-6": {"system": "MONO-MAC-6", "assay": "Cell proliferation assay: GI50", "format": "cell-based", "protocol": "as §1"}, "NB-4": {"system": "NB-4", "assay": "Cell proliferation assay: GI50", "format": "cell-based", "protocol": "as §1"}, "OCI-AML2": {"system": "OCI-AML2", "assay": "Cell proliferation assay: GI50", "format": "cell-based", "protocol": "as §1"}, "OCI-AML3": {"system": "OCI-AML3", "assay": "Cell proliferation assay: GI50", "format": "cell-based", "protocol": "as §1"}, "TF-1": {"system": "TF-1", "assay": "Cell proliferation assay: GI50", "format": "cell-based", "protocol": "as §1"}, "THP-1": {"system": "THP-1", "assay": "Cell proliferation assay: GI50", "format": "cell-based", "protocol": "as §1"}, "UT-7": {"system": "UT-7", "assay": "Cell proliferation assay: GI50", "format": "cell-based", "protocol": "as §1"}, "ML-2 [1]": {"system": "ML-2", "assay": "Differentiation-apoptosis assay, CD11b / annexin-V / Sytox Green / myeloid markers flow cytometry", "format": "cell-based, human", "parameters": "Cell viability: concentration or dose not given beside the values; CD11b levels: unit not given here", "how_it_was_run": "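Cells washed in PBS, resuspended at 1 × 10^6 cells/mL in binding buffer and stained with APC-CD11b and FITC annexin-V for 15 min at room temperature in the dark, then read by flow cytometry. Other runs used a CD13/HLA-DR/CD14 antibody panel, 30 min staining, then red-cell lysis and washes.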"}, "HL-60": {"system": "HL-60", "assay": "Cell-cycle analysis", "format": "cell-based, human", "settings": "HL-60, treatment for 48 hours; replicates 1-3 (Figure 2F)", "protocol": "(§2) […] Next, the cells were washed twice with PBS and resuspended in 0.2% Tween 20 in PBS and 0.5 mg/mL Rnase A (Ribonuclease A Type III-A from bovine pancreas, Cat No. R5125, Sigma), and then incubated for 30 min at 37 °C. Subsequently, the cells were stained with 25 μg/mL of propidium iodide (Cat No P4170, Sigma) and analyzed using a BD FACSCanto flow cytometer (Becton Dickinson, San Jose, CA, USA)."}, "ML-2 [2]": {"system": "ML-2", "assay": "Cell-cycle analysis", "format": "cell-based, human", "settings": "ML-2, treatment for 48 hours; replicates 1-3 (Figure 2F)", "protocol": "as §2"}, "MOLM-13": {"system": "MOLM-13", "assay": "Cell-cycle analysis", "format": "cell-based, human", "settings": "MOLM-13, 48 hours", "protocol": "as §2"}, "MV4-11": {"system": "MV4-11", "assay": "Cell-cycle analysis", "format": "cell-based, human", "settings": "MV4-11, 48 hours", "protocol": "as §2"}, "[3]": {"settings": "ML-2, 48 h, replicates (Fig 4A)"}, "[4]": {"settings": "ML-2, daily treatment, time 0 days, replicates 1-3 (Figure 2B)"}, "[5]": {"settings": "ML-2, daily treatment, time 2 days, replicates 1-3 (Figure 2B)"}, "[6]": {"settings": "ML-2, daily treatment, time 4 days, replicates 1-3 (Figure 2B)"}, "[7]": {"settings": "ML-2, daily treatment, time 6 days, replicates 1-3 (Figure 2B)"}, "[8]": {"settings": "ML-2, daily treatment, time 8 days, replicates 1-3 (Figure 2B)"}}, "note": "Several values for one entry are separate records, joined by “and”; a condition that tells them apart may be missing. Identical values can stand only once."}
{"smiles": "COc1cc2nc(-c3ccc(C)o3)cc(NCC3CCN(c4ncc(C(=O)NO)cn4)CC3)c2cc1OC", "note": "[CM-444, 2-[4-[[[6,7-dimethoxy-2-(5-methyl-2-furyl)-4-quinolyl]amino]methyl]-1-piperidyl]pyrimidine-5-carbohydroxamic acid]", "values": [{"measurement": "GI50", "setting": "GF-D8", "result": "7250 nM and 4120 nM and 3690 nM"}, {"measurement": "GI50", "setting": "HEL; Homo sapiens", "result": 1590, "unit": "nM"}, {"measurement": "GI50", "setting": "HEL", "result": "1120 nM and 938 nM"}, {"measurement": "GI50", "setting": "KASUMI-1; Homo sapiens, Kasumi 1, 48 h, KASUMI-1, 48 h", "result": 668, "unit": "nM"}, {"measurement": "GI50", "setting": "KASUMI-1; Homo sapiens, Kasumi 1, KASUMI-1, replicates 1-3", "result": 521, "unit": "nM"}, {"measurement": "GI50", "setting": "KASUMI-1; KASUMI-1, replicates 1-3", "result": "698 nM and 786 nM"}, {"measurement": "GI50", "setting": "M-07e", "result": "1330 nM and 1200 nM and 1180 nM"}, {"measurement": "GI50", "setting": "MONO-MAC-6; Homo sapiens, MONO-MAC-6, 48 h", "result": 470, "unit": "nM"}, {"measurement": "GI50", "setting": "MONO-MAC-6; MONO-MAC-6, replicates 1-3", "result": "215 nM and 607 nM and 588 nM"}, {"measurement": "GI50", "setting": "NB-4; Homo sapiens, NB-4, 48 h", "result": 668, "unit": "nM"}, {"measurement": "GI50", "setting": "NB-4; Homo sapiens, NB-4, NB-4, replicates 1-3", "result": 658, "unit": "nM"}, {"measurement": "GI50", "setting": "NB-4; NB-4, replicates 1-3", "result": "785 nM and 563 nM"}, {"measurement": "GI50", "setting": "OCI-AML2; Homo sapiens, OCI-AML2, 48 h", "result": 640, "unit": "nM"}, {"measurement": "GI50", "setting": "OCI-AML2; Homo sapiens, OCI-AML2, OCI-AML2, replicates 1-3", "result": 736, "unit": "nM"}, {"measurement": "GI50", "setting": "OCI-AML2; OCI-AML2, replicates 1-3", "result": "574 nM and 612 nM"}, {"measurement": "GI50", "setting": "OCI-AML3; Homo sapiens, OCI-AML-3, OCI-AML3, 48 h", "result": "> 10000", "unit": "nM"}, {"measurement": "GI50", "setting": "OCI-AML3; Homo sapiens, OCI-AML-3, OCI-AML3, replicates 1-3", "result": "> 10000", "unit": "nM"}, {"measurement": "GI50", "setting": "OCI-AML3; OCI-AML3, replicates 1-3", "result": "> 10000", "unit": "nM"}, {"measurement": "GI50", "setting": "TF-1; Homo sapiens, TF-1, TF-1, replicates 1-3", "result": 3870, "unit": "nM"}, {"measurement": "GI50", "setting": "TF-1; TF-1, replicates 1-3", "result": "3250 nM and 3500 nM"}, {"measurement": "GI50", "setting": "THP-1; Homo sapiens, THP-1, 48 h", "result": "> 10000", "unit": "nM"}, {"measurement": "GI50", "setting": "THP-1; Homo sapiens, THP-1, replicates 1-3", "result": "> 10000", "unit": "nM"}, {"measurement": "GI50", "setting": "THP-1; THP-1, replicates 1-3", "result": "> 10000", "unit": "nM"}, {"measurement": "GI50", "setting": "UT-7; Homo sapiens, UT7, 48 h, UT-7, 48 h", "result": 970, "unit": "nM"}, {"measurement": "GI50", "setting": "UT-7; Homo sapiens, UT7, UT-7, replicates 1-3", "result": 875, "unit": "nM"}, {"measurement": "GI50", "setting": "UT-7; UT-7, replicates 1-3", "result": "1070 nM and 965 nM"}, {"measurement": "percentage of CD11b", "setting": "ML-2 [1]; ML-2, 260 nM CM-444 or 210 nM CM-1758 daily for 4 days, before injection", "result": "> 90", "unit": "%"}, {"measurement": "CD11b (%)", "setting": "ML-2 [1]; ML-2, 48 h", "result": 80.1, "unit": "%"}, {"measurement": "CD13 (%)", "setting": "ML-2 [1]; ML-2, 48 h", "result": 100, "unit": "%"}, {"measurement": "CD14 (%)", "setting": "ML-2 [1]; ML-2, 48 h", "result": 5.20, "unit": "%"}, {"measurement": "HLA-DR (%)", "setting": "ML-2 [1]; ML-2, 48 h", "result": 35.7, "unit": "%"}, {"measurement": "CD11b", "setting": "ML-2 [1]; [3]", "result": "89.5% and 75.9% and 74.5%"}, {"measurement": "Cell viability", "setting": "ML-2 [1]; [3]", "result": "80.4% and 75.1% and 78.2%"}, {"measurement": "differentiation level (CD11b)", "setting": "ML-2 [1]; ML-2, after 6–8 days of treatment", "result": "~90", "unit": "%"}, {"measurement": "Annexin-V (%)", "setting": "ML-2 [1]; [4]", "result": "0% and 1.81% and 2.3%"}, {"measurement": "CD11b (%)", "setting": "ML-2 [1]; [4]", "result": "9.3% and 9.32% and 7.24%"}, {"measurement": "Annexin-V (%)", "setting": "ML-2 [1]; [5]", "result": "0% and 8.27% and 5.87%"}, {"measurement": "CD11b (%)", "setting": "ML-2 [1]; [5]", "result": "24.52% and 30.8% and 32.5%"}, {"measurement": "Annexin-V (%)", "setting": "ML-2 [1]; [6]", "result": "7.16% and 8.18% and 7.5%"}, {"measurement": "CD11b (%)", "setting": "ML-2 [1]; [6]", "result": "47.58% and 64.3% and 58.4%"}, {"measurement": "Annexin-V (%)", "setting": "ML-2 [1]; [7]", "result": "12.1% and 4.47% and 9.8%"}, {"measurement": "CD11b (%)", "setting": "ML-2 [1]; [7]", "result": "89.87% and 81.3% and 87.3%"}, {"measurement": "Annexin-V (%)", "setting": "ML-2 [1]; [8]", "result": "10.64% and 10.25% and 11.25%"}, {"measurement": "CD11b (%)", "setting": "ML-2 [1]; [8]", "result": "92.1% and 91.7% and 93.4%"}, {"measurement": "CD11b (%)", "setting": "ML-2 [1]; ML-2 cell line, replicates 1-3 (Figure 2A)", "result": "86.3% and 76.9% and 74.7%"}, {"measurement": "CD11b levels", "setting": "ML-2 [1]; ML-2 treated daily for 48 h, replicates (Fig 6E)", "result": "70.9 and 75.6 and 72.7"}, {"measurement": "Cell number (%) G1", "setting": "HL-60", "result": "96.96% and 93.22% and 91.97%"}, {"measurement": "Cell number (%) G2/M", "setting": "HL-60", "result": "4.36% and 1.34% and 3.53%"}, {"measurement": "Cell number (%) S", "setting": "HL-60", "result": "1.70% and 3.26% and 3.67%"}, {"measurement": "Cell number (%) G1", "setting": "ML-2 [2]", "result": "96.26% and 93.16% and 96.12%"}, {"measurement": "Cell number (%) G2/M", "setting": "ML-2 [2]", "result": "0.0429% and 0.75% and 2.61%"}, {"measurement": "Cell number (%) S", "setting": "ML-2 [2]", "result": "2.99% and 4.24% and 3.84%"}, {"measurement": "Cell number (%) G1", "setting": "MOLM-13", "result": "98.91% and 98.32% and 98.59%"}, {"measurement": "Cell number (%) G2/M", "setting": "MOLM-13", "result": "0.29% and 0.03% and 0.73%"}, {"measurement": "Cell number (%) S", "setting": "MOLM-13", "result": "1.06% and 0.95% and 1.11%"}, {"measurement": "Cell number (%) G1", "setting": "MV4-11", "result": "92.37% and 89.49% and 89.94%"}, {"measurement": "Cell number (%) G2/M", "setting": "MV4-11", "result": "2.21% and 0.68% and 3.29%"}, {"measurement": "Cell number (%) S", "setting": "MV4-11", "result": "6.95% and 7.22% and 7.84%"}]}
